Assay results: publication PMC4450297, “Screening Active Compounds from Garcinia Species Native to China Reveals Novel Compounds Targeting the STAT/JAK Signaling Pathway” (BioMed Research International, 2015)

The compounds below were run on J82 (assay: Cell panel screen (CellTiter-Glo)). Conditions: J82 (Urinary bladder), 20 micromolar, 72 hrs.
Assay type: cell-based, human
Summary of the method: (§1)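 Steps: seed cells, culture overnight at 37°C; add compound diluted in medium from DMSO stock to 20 μM final; incubate 72 h; add detection reagent for 10 min; read luminescence; compute % inhibition versus vehicle controls.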

Row | SMILES | Percent Inhibition [%]
1 | CC(C)=CCCC1(C)C=Cc2c(O)c3c(c(CC=C(C)C)c2O1)OC12C(=CC4CC1C(C)(C)OC2(CC=C(C)C(=O)O)C4=O)C3=O (mixture of isomers) [GB14] | 97

Each compound was assayed on NCI-H2347 (assay: Cell panel screen (CellTiter-Glo)). Conditions: NCI-H2347 (Lung), 20 micromolar, 72 hrs.
Assay type: cell-based, human
Summary of the method: as §1

Row | SMILES | Percent Inhibition [%]
2 | CC(C)=CCCC1(C)C=Cc2c(O)c3c(c(CC=C(C)C)c2O1)OC12C(=CC4CC1C(C)(C)OC2(CC=C(C)C(=O)O)C4=O)C3=O (mixture of isomers) [GB14] | 97

What follows are compounds tested on NCI-H2405 (assay: Cell panel screen (CellTiter-Glo)). Conditions: NCI-H2405 (Lung), 20 micromolar, 72 hrs.
Assay type: cell-based, human
Summary of the method: as §1

Row | SMILES | Percent Inhibition [%]
3 | CC(C)=CCCC1(C)C=Cc2c(O)c3c(c(CC=C(C)C)c2O1)OC12C(=CC4CC1C(C)(C)OC2(CC=C(C)C(=O)O)C4=O)C3=O (mixture of isomers) [GB14] | 97

The compounds below were run on CCF-STTG1 (assay: Cell panel screen (CellTiter-Glo)). Conditions: CCF-STTG1 (Brain), 20 micromolar, 72 hrs.
Assay type: cell-based, human
Summary of the method: as §1

Row | SMILES | Percent Inhibition [%]
4 | CC(C)=CCCC1(C)C=Cc2c(O)c3c(c(CC=C(C)C)c2O1)OC12C(=CC4CC1C(C)(C)OC2(CC=C(C)C(=O)O)C4=O)C3=O (mixture of isomers) [GB14] | 98

The compounds below were run on RL95 (assay: Cell panel screen (CellTiter-Glo)). Conditions: RL95 (Uterus), 20 micromolar, 72 hrs.
Assay type: cell-based, human
Summary of the method: as §1

Row | SMILES | Percent Inhibition [%]
5 | CC(C)=CCCC1(C)C=Cc2c(O)c3c(c(CC=C(C)C)c2O1)OC12C(=CC4CC1C(C)(C)OC2(CC=C(C)C(=O)O)C4=O)C3=O (mixture of isomers) [GB14] | 97

The compounds below were run on HGC-27 (assay: Cell panel screen (CellTiter-Glo)). Conditions: HGC-27 (Stomach), 20 micromolar, 72 hrs.
Assay type: cell-based, human
Summary of the method: as §1

Row | SMILES | Percent Inhibition [%]
6 | CC(C)=CCCC1(C)C=Cc2c(O)c3c(c(CC=C(C)C)c2O1)OC12C(=CC4CC1C(C)(C)OC2(CC=C(C)C(=O)O)C4=O)C3=O (mixture of isomers) [GB14] | 98

The compounds below were run on Colo 205 (assay: Cell panel screen (CellTiter-Glo)). Conditions: Colo 205, 20 micromolar, 72 hrs.
Assay type: cell-based, human
Summary of the method: as §1

Row | SMILES | Percent Inhibition [%]
7 | CC(C)=CCCC1(C)C=Cc2c(O)c3c(c(CC=C(C)C)c2O1)OC12C(=CC4CC1C(C)(C)OC2(CC=C(C)C(=O)O)C4=O)C3=O (mixture of isomers) [GB14] | 98

What follows are compounds tested on HEC-1-A (assay: Cell panel screen (CellTiter-Glo)). Conditions: HEC-1-A (Uterus), 20 micromolar, 72 hrs.
Assay type: cell-based, human
Summary of the method: as §1

Row | SMILES | Percent Inhibition [%]
8 | CC(C)=CCCC1(C)C=Cc2c(O)c3c(c(CC=C(C)C)c2O1)OC12C(=CC4CC1C(C)(C)OC2(CC=C(C)C(=O)O)C4=O)C3=O (mixture of isomers) [GB14] | 97

The compounds below were run on HT-1197 (assay: Cell panel screen (CellTiter-Glo)). Conditions: HT-1197 (Urinary bladder), 20 micromolar, 72 hrs.
Assay type: cell-based, human
Summary of the method: as §1

Row | SMILES | Percent Inhibition [%]
9 | CC(C)=CCCC1(C)C=Cc2c(O)c3c(c(CC=C(C)C)c2O1)OC12C(=CC4CC1C(C)(C)OC2(CC=C(C)C(=O)O)C4=O)C3=O (mixture of isomers) [GB14] | 98

What follows are compounds tested on BT-474 (assay: Cell panel screen (CellTiter-Glo)). Conditions: BT-474 (Breast), 20 micromolar, 72 hrs.
Assay type: cell-based, human
Summary of the method: as §1

Row | SMILES | Percent Inhibition [%]
10 | CC(C)=CCCC1(C)C=Cc2c(O)c3c(c(CC=C(C)C)c2O1)OC12C(=CC4CC1C(C)(C)OC2(CC=C(C)C(=O)O)C4=O)C3=O (mixture of isomers) [GB14] | 98

These compounds were tested on A498 (assay: Cell panel screen (CellTiter-Glo)). Conditions: A498 (listed under Lung), 20 micromolar, 72 hrs.
Assay type: cell-based, human
Summary of the method: as §1

Row | SMILES | Percent Inhibition [%]
11 | CC(C)=CCCC1(C)C=Cc2c(O)c3c(c(CC=C(C)C)c2O1)OC12C(=CC4CC1C(C)(C)OC2(CC=C(C)C(=O)O)C4=O)C3=O (mixture of isomers) [GB14] | 97

Each compound was assayed on HCC1937 (assay: Cell panel screen (CellTiter-Glo)). Conditions: HCC1937 (Breast), 20 micromolar, 72 hrs.
Assay type: cell-based, human
Summary of the method: as §1

Row | SMILES | Percent Inhibition [%]
12 | CC(C)=CCCC1(C)C=Cc2c(O)c3c(c(CC=C(C)C)c2O1)OC12C(=CC4CC1C(C)(C)OC2(CC=C(C)C(=O)O)C4=O)C3=O (mixture of isomers) [GB14] | 98

These compounds were tested on HCC1395 (assay: Cell panel screen (CellTiter-Glo)). Conditions: HCC1395 (Breast), 20 micromolar, 72 hrs.
Assay type: cell-based, human
Summary of the method: as §1

Row | SMILES | Percent Inhibition [%]
13 | CC(C)=CCCC1(C)C=Cc2c(O)c3c(c(CC=C(C)C)c2O1)OC12C(=CC4CC1C(C)(C)OC2(CC=C(C)C(=O)O)C4=O)C3=O (mixture of isomers) [GB14] | 98

The compounds below were run on C3A (assay: Cell panel screen (CellTiter-Glo)). Conditions: C3A (Liver), 20 micromolar, 72 hrs.
Assay type: cell-based, human
Summary of the method: as §1

Row | SMILES | Percent Inhibition [%]
14 | CC(C)=CCCC1(C)C=Cc2c(O)c3c(c(CC=C(C)C)c2O1)OC12C(=CC4CC1C(C)(C)OC2(CC=C(C)C(=O)O)C4=O)C3=O (mixture of isomers) [GB14] | 98

What follows are compounds tested on M059J (assay: Cell panel screen (CellTiter-Glo)). Conditions: M059J (Brain), 20 micromolar, 72 hrs.
Assay type: cell-based, human
Summary of the method: as §1

Row | SMILES | Percent Inhibition [%]
15 | CC(C)=CCCC1(C)C=Cc2c(O)c3c(c(CC=C(C)C)c2O1)OC12C(=CC4CC1C(C)(C)OC2(CC=C(C)C(=O)O)C4=O)C3=O (mixture of isomers) [GB14] | 97

These compounds were tested on HCC1599 (assay: Cell panel screen (CellTiter-Glo)). Conditions: HCC1599 (Breast), 20 micromolar, 72 hrs.
Assay type: cell-based, human
Summary of the method: as §1

Row | SMILES | Percent Inhibition [%]
16 | CC(C)=CCCC1(C)C=Cc2c(O)c3c(c(CC=C(C)C)c2O1)OC12C(=CC4CC1C(C)(C)OC2(CC=C(C)C(=O)O)C4=O)C3=O (mixture of isomers) [GB14] | 98

These compounds were tested on NCI-H1623 (assay: Cell panel screen (CellTiter-Glo)). Conditions: NCI-H1623 (Lung), 20 micromolar, 72 hrs.
Assay type: cell-based, human
Summary of the method: as §1

Row | SMILES | Percent Inhibition [%]
17 | CC(C)=CCCC1(C)C=Cc2c(O)c3c(c(CC=C(C)C)c2O1)OC12C(=CC4CC1C(C)(C)OC2(CC=C(C)C(=O)O)C4=O)C3=O (mixture of isomers) [GB14] | 98

What follows are compounds tested on Bel-7402 (assay: Cell panel screen (CellTiter-Glo)). Conditions: Bel-7402 (Liver), 20 micromolar, 72 hrs.
Assay type: cell-based, human
Summary of the method: as §1

Row | SMILES | Percent Inhibition [%]
18 | CC(C)=CCCC1(C)C=Cc2c(O)c3c(c(CC=C(C)C)c2O1)OC12C(=CC4CC1C(C)(C)OC2(CC=C(C)C(=O)O)C4=O)C3=O (mixture of isomers) [GB14] | 97
